Test results taken from EP4685143A1 (Vivozon,Inc., priority 2023, dated 2024).
pIC50: −log10 of the molar value.

Legend:
Human mGluR5 = target: T1, Human mGluR5 (Homo sapiens, UniProt P41594); assay: Fluorescence-based Ca2+ mobilization assay; settings: HEK293 cell line permanently overexpressing mGluR5, Ca2+ level change induced by L-glutamate at EC80 concentration, FLIPR Tetra
T1 construct: expressed in transfected cells; host or cells: HEK293
Experimental: Experimental Example 2: Fluorescence-based Ca^2+ mobilization assay
In order to measure the activity of the antagonist on the mGluR5, an experiment was carried out to check the change in the intracellular Ca^2+ level using the HEK293 cell line permanently overexpressing the mGluR5. The cells in the cell culture medium were aliquoted into a 384-well plate coated with poly-D-lysine and cultured in a 37°C incubator supplied with 5% CO2. The next day, the medium was removed and a dye loading buffer-in which a reagent capable of measuring Ca^2+ was dissolved-was added, and then incubated at 37°C for 60 minutes. The test compounds were dissolved in 100% DMSO at a final concentration of 10 mM to make a stock solution. The starting concentration of 10 µM was prepared from the stock solution, followed by serial dilutions to prepare working solutions (test compound working solutions). The test compound working solutions were added to the cells that were incubated in the dye loading buffer, which were maintained for 30 minutes at room temperature in a light-shielding state before measurement. The Ca^2+ level change induced by L-glutamate at EC80 concentration was measured for 2 minutes using FLIPR Tetra (MDS Analytical Technologies). The fluorescent Ca^2+ signal values in the presence of the test compounds were normalized to the fluorescent signal elicited by EC80 concentration of L-glutamate as 100% and that elicited by vehicle as 0% to estimate % inhibition of the test compounds. […]

human HDAC6 enzyme = target: T2, human HDAC6 enzyme (Homo sapiens, UniProt Q9UBN7); assay: Fluorescence-based enzyme activity assay; assay type: biochemical; settings: substrate with fluorescent peptide of p53 residues 379-382, 30°C for 1 hour
T2 sequence (Q9UBN7 1-1215): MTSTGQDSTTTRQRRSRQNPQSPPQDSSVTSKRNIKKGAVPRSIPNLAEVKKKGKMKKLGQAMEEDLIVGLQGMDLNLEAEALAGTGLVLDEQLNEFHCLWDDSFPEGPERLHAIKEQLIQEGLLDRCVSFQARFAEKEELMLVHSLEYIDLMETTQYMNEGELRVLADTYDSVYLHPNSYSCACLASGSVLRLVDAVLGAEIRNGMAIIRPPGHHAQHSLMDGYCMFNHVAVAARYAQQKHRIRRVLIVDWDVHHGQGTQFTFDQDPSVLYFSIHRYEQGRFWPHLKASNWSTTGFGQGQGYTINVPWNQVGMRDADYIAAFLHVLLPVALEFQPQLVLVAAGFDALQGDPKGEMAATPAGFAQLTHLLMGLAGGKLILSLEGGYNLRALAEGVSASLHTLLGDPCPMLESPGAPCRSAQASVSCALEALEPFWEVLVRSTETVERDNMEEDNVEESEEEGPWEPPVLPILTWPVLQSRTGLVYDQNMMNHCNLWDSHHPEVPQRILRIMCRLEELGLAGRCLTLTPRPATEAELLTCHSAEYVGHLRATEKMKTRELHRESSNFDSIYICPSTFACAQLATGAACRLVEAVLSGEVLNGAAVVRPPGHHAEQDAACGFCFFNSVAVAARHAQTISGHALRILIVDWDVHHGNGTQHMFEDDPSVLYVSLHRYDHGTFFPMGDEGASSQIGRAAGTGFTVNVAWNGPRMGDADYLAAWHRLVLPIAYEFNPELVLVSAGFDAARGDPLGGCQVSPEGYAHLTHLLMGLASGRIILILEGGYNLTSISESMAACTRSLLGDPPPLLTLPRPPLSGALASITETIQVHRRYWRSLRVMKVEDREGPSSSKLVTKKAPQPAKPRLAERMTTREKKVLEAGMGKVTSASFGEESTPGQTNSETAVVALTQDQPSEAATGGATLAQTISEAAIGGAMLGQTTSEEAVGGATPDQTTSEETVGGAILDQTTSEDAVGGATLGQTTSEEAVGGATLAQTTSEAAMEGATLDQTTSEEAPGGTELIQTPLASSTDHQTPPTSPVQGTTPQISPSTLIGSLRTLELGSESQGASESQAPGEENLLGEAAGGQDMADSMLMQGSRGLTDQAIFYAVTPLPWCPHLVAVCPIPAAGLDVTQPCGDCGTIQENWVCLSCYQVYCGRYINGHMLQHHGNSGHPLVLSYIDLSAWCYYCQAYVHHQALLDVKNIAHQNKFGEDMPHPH
Experimental: Experimental Example 1: Fluorescence-based enzyme activity assay
In order to measure the inhibitory effect of the compounds on the activity of histone deacetylase 6 (HDAC6), an enzyme activity assay was performed to evaluate the enzyme activity by reacting the human HDAC6 enzyme with a substrate to which a fluorescent peptide of p53 residues 379-382 was attached. The test compounds were dissolved in 100% DMSO at a concentration of 10 mM to prepare a stock solution. A starting concentration of 30 µM was prepared from the stock solution, followed by 1/3 serial dilutions to prepare the test buffer solution. Trichostatin A (TSA)-which is the reference compound used to confirm the validity of the experiment-was serially diluted by 1/3 with the test buffer solution, starting from the highest concentration of 1 µM. To react the test compounds and TSA prepared in the test buffer with the HDAC6 enzyme, they were dispensed into a 96-well black plate and spin-down of the plate was performed. Then, the reaction was carried out at room temperature for 10 minutes. After 10 minutes, the substrate was dispensed, and the plate was sealed. The reaction was carried out at 30°C for 1 hour under light-blocking conditions. Fluorescence values were measured using a plate reader (wavelength: excitation/emission = 360/460 nm). The fluorescence measurements were normalized to the HDAC6 enzyme-treated group as 100% and the untreated group as 0%, respectively. […]

T1 sequence (P41594 21-1212): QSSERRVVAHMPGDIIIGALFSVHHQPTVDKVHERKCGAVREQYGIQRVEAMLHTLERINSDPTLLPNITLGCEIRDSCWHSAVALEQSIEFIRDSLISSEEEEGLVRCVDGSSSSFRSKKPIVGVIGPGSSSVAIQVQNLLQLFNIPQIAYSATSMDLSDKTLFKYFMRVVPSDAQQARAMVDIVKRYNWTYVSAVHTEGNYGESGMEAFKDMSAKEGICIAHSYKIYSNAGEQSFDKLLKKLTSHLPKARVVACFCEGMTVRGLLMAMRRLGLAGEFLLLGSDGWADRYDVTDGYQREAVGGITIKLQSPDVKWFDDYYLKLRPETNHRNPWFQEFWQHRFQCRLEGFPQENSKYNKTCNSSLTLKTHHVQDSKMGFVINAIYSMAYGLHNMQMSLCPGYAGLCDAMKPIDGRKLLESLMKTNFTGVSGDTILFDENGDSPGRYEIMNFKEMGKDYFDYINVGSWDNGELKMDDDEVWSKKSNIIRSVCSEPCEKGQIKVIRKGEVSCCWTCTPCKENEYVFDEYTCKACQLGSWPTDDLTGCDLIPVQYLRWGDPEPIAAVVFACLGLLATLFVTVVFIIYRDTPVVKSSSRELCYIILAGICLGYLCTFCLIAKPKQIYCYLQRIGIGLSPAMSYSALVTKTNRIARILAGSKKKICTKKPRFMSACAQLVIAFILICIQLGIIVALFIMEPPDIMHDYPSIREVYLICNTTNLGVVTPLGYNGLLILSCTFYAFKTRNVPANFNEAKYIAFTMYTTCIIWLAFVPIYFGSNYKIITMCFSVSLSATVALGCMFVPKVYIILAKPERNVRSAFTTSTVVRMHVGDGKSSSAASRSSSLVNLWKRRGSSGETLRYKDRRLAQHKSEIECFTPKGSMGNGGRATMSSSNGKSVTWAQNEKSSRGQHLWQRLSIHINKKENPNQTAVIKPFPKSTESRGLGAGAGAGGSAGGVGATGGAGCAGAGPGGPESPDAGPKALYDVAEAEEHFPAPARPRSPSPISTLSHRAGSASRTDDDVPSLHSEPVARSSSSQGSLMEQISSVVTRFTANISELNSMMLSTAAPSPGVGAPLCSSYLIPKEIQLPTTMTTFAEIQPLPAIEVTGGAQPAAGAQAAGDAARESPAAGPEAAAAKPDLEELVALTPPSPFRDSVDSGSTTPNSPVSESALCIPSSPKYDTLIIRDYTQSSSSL

| pIC50 (Human mGluR5) | pIC50 (human HDAC6 enzyme) | SMILES |
| --- | --- | --- |
| 5.70 to 6.00 | 6.30 to 7.00 | O=c1cc(-c2nnc(C(F)F)o2)ccn1CC#Cc1cccc(C(F)(F)F)c1 [Example 19, 4-(5-(difluoromethyl)-1,3,4-oxadiazol-2-yl)-1-(3-(3-(trifluoromethyl)phenyl)prop-2-yn-1-yl)pyridin-2(1H)-one] |
| 5.70 to 6.00 | > 7.00 | O=c1cc(-c2nnc(C(F)F)o2)ccn1CC#Cc1ccnc(Cl)c1 [Example 23, 1-(3-(2-chloropyridin-4-yl)prop-2-yn-1-yl)-4-(5-(difluoromethyl)-1,3,4-oxadiazol-2-yl)pyridin-2(1H)-one] |
| 6.00 to 6.30 | > 7.00 | Cc1cccc(C#CCn2ccc(-c3nnc(C(F)F)o3)cc2=O)n1 [Example 24, 4-(5-(difluoromethyl)-1,3,4-oxadiazol-2-yl)-1-(3-(6-methylpyridin-2-yl)prop-2-yn-1-yl)pyridin-2(1H)-one] |
| 6.00 to 6.30 | – | O=c1cc(-c2nnc(C(F)F)o2)ccn1CC#Cc1cccc(C(F)F)c1 [Example 26, 4-(5-(difluoromethyl)-1,3,4-oxadiazol-2-yl)-1-(3-(3-(difluoromethyl)phenyl)prop-2-yn-1-yl)pyridin-2(1H)-one] |
| 5.70 to 6.00 | > 7.00 | O=c1cc(-c2nnc(C(F)F)o2)ccn1CC#Cc1cccc(OC(F)F)c1 [Example 27, 1-(3-(3-(difluoromethoxy)phenyl)prop-2-yn-1-yl)-4-(5-(difluoromethyl)-1,3,4-oxadiazol-2-yl)pyridin-2(1H)-one] |
| 5.70 to 6.00 | 6.00 to 6.30 | O=c1cc(-c2nnc(C(F)(F)F)o2)ccn1CC#Cc1cccc(Cl)c1 [Example 28, 1-(3-(3-chlorophenyl)prop-2-yn-1-yl)-4-(5-(trifluoromethyl)-1,3,4-oxadiazol-2-yl)pyridin-2(1H)-one] |
| 6.00 to 6.30 | 6.00 to 6.30 | O=c1cc(-c2noc(C(F)F)n2)ccn1CC#Cc1cccc(Cl)c1 [Example 30, 1-(3-(3-chlorophenyl)prop-2-yn-1-yl)-4-(5-(difluoromethyl)-1,2,4-oxadiazol-3-yl)pyridin-2(1H)-one] |
| 6.00 to 6.30 | > 7.00 | N#Cc1cccc(C#CCn2ccc(-c3nnc(C(F)F)o3)cc2=O)c1 [Example 31, 3-(3-(4-(5-(difluoromethyl)-1,3,4-oxadiazol-2-yl)-2-oxopyridin-1(2H)-yl)prop-1-yn-1-yl)benzonitrile] |

Continued, compound first:

| SMILES | pIC50 (Human mGluR5) | pIC50 (human HDAC6 enzyme) |
| --- | --- | --- |
| O=c1cc(-c2noc(C(F)(F)F)n2)ccn1CC#Cc1cccc(Cl)c1 [Example 7, 1-(3-(3-chlorophenyl)prop-2-yn-1-yl)-4-(5-(trifluoromethyl)-1,2,4-oxadiazol-3-yl)pyridine-2(1H)-one] | 5.70 to 6.00 | 6.00 to 6.30 |
| O=c1cc(-c2nnc(C(F)F)o2)ccn1CC#Cc1cccc(Cl)c1 [Example 15, 1-(3-(3-chlorophenyl)prop-2-yn-1-yl)-4-(5-(difluoromethyl)-1,3,4-oxadiazol-2-yl)pyridin-2(1H)-one] | 6.00 to 6.30 | > 7.00 |
| Cc1ccc(C#CCn2ccc(-c3nnc(C(F)F)o3)cc2=O)cc1 [Example 17, 4-(5-(difluoromethyl)-1,3,4-oxadiazol-2-yl)-1-(3-(p-tolyl)prop-2-yn-1-yl)pyridin-2(1H)-one] | 5.70 to 6.00 | 6.30 to 7.00 |
| Cc1cccc(C#CCn2ccc(-c3nnc(C(F)F)o3)cc2=O)c1 [Example 18, 4-(5-(difluoromethyl)-1,3,4-oxadiazol-2-yl)-1-(3-(m-tolyl)prop-2-yn-1-yl)pyridin-2(1H)-one] | 5.70 to 6.00 | > 7.00 |
| O=c1cc(-c2nnc(C(F)F)o2)ccn1CC#Cc1cccc(OC(F)(F)F)c1 [Example 20, 4-(5-(difluoromethyl)-1,3,4-oxadiazol-2-yl)-1-(3-(3-(trifluoromethoxy)phenyl)prop-2-yn-1-yl)pyridin-2(1H)-one] | 5.70 to 6.00 | 6.30 to 7.00 |
| O=c1cc(-c2nnc(C(F)F)o2)ccn1CC#Cc1cccc(Br)c1 [Example 25, 1-(3-(3-bromophenyl)prop-2-yn-1-yl)-4-(5-(difluoromethyl)-1,3,4-oxadiazol-2-yl)pyridin-2(1H)-one] | 6.00 to 6.30 | 6.30 to 7.00 |
| O=c1cc(-c2nnc(C(F)F)o2)ccn1CC#Cc1cc(Cl)ccc1F [Example 36, 1-(3-(5-chloro-2-fluorophenyl)prop-2-yn-1-yl)-4-(5-(difluoromethyl)-1,3,4-oxadiazol-2-yl)pyridin-2(1H)-one] | 5.70 to 6.00 | 6.30 to 7.00 |
| CCC(C#Cc1cccc(Cl)c1)Oc1cc(-c2nnc(C(F)F)o2)ccn1 (stereo not drawn) [Example 44] | 5.70 to 6.00 | – |
| Cc1cc(-c2nnc(C(F)F)o2)cc(=O)n1CC#Cc1cccc(Cl)c1 [Example 45, 1-(3-(3-chlorophenyl)prop-2-yn-1-yl)-4-(5-(difluoromethyl)-1,3,4-oxadiazol-2-yl)-6-methylpyridin-2(1H)-one] | 6.00 to 6.30 | 6.30 to 7.00 |
| O=c1cc(-c2nnc(C(F)F)o2)c(Br)cn1CC#Cc1cccc(Cl)c1 [Example 46, 5-bromo-1-(3-(3-chlorophenyl)prop-2-yn-1-yl)-4-(5-(difluoromethyl)-1,3,4-oxadiazol-2-yl)pyridin-2(1H)-one] | 6.00 to 6.30 | – |
